The values that follow come from patent US8026274B2, “Use of oxandrolone in the treatment of burns and other wounds” (Savient Pharmaceuticals, Inc., priority 1996, dated 2011).

Entries after “also recorded” stand apart in the source; their conditions may differ.

The conditions of series [1]: in vivo; cited from earlier work.
Series [2] deals with pressure sores (decubitus ulcers) in a paraplegic patient. Put plainly: Example 3: oxandrolone treatment of pressure sores (decubitus ulcers). Format: in vivo, human. The conditions noted are these: 20 mg per day orally, preliminary result. The text has this:
A paraplegic patient was suffering from pressure sores (decubitus ulcers) which had been unhealed for over one year. […] Further experiments using oxandrolone for treatment of pressure sores and other wounds are planned.

For series [3], the system named is burn patients (deep burn of 30-50% of body surface). Put plainly: Example 1: effect of oxandrolone on post-burn catabolism (I), recovery phase in burn patients. Format: in vivo, human. On the procedure:
A study on the effect of oxandrolone on post-burn patients was performed as described below.
The patients included in this study had undergone: • a. catabolic phase until 80-90% of wound closure (4-10 weeks); • b. loss of 15-25% body weight (mostly lean body mass) during catabolic phase despite optimum nutrition;
The transition from “catabolic” to recovery “anabolic” was defined by: • a. No need for life support measures, being stable and out of the Intensive Care Unit (ICU); • b. No active infection (stress); • c. Open wound (not counting donor sites) not exceeding 10% Total Body Surface (TBS); • d. Patient taking oral diet with supplements or tube feeding (off parenteral feeding); • e. patient can actively participate in a physical therapy program with active ROM exercises accentuating the anabolic stimulus of exercise.
All patients were located in the burn step-down unit or in an acute rehabilitation hospital where daily information is retrieved from the physiatrist, nutritionist, and therapist.
The patients were divided into three groups in a prospective randomized manner: • Group 1: Standard nutritional goals as defined by the nutrition support service. • Group 2: Same as Group 1 plus 2-3 Met-Rx™ (protein supplement) per day (sufficient protein to increase daily protein intake to 2-2.2 g/kg/day). • Group 3: Same as Group 2 plus oxandrolone 20 mg orally four times daily. Measurements
The following factors were checked: • a. Subjective energy level (per Braintree study) 0-10; • b. Physical therapy index^1 (per Braintree study) 0-10: • 0 completes 25% session with fatigue • 2 completes 50% session with fatigue • 4 completes 75% session with fatigue • 6 completes 100% session with fatigue • 8 completes 100% session with no fatigue • 10 completes 100% session and more with no fatigue; • c. Weekly weight gain; • d. Daily nutritional profiles; • e. Measurement of lean body mass by bioelective impedance. ^1 assessment of muscle strength and endurance
The onset of the study was defined as the onset of the recovery phase (anabolic phase). Patients were studied for 3 weeks (from the onset of anabolism).

For series [4] the following is noted: in contrast to the majority of oral androgenic anabolic steroids; cited from earlier work.
The test system of series [5] is burn patients (deep burn of 30-50% of body surface). Put plainly: Example 2: effect of oxandrolone on post-burn catabolism (II), first three weeks of recovery phase. Format: in vivo, human. On the procedure:
Another study on the effect of oxandrolone on post-burn patients was carried out as follows.
The onset of the study was defined as the onset of the recovery phase (anabolic phase). The study period included the first three weeks of the recovery phase. Although somewhat arbitrary, the beginning of the recovery period was determined for all patients using the following criteria: • a. No need for life support measures, with a stable cardiopulmonary status; • b. No active infection; • c. Basal body temperature below 99.5° F.; • d. Metabolic rate at rest (indirect calorimetry) being less than 130% of normal; • e. Open wound (not counting donor sites) not exceeding 10% TBS; • f. Patient taking adequate oral diet with supplements or tube feeding and off all parenteral feeding; • g. active participation in a physical therapy program including resistance exercises especially to large muscle groups.
The patients were divided into three groups in a prospective randomized manner: • Group 1: High protein high calorie ad lib oral diet and protein supplement Met-Rx™. The supplement was given in a quantity equal to approximately one liter so that total protein intake would approximate 2 g/kg/day. • Group 2: Same as Group I with the addition of oxandrolone 10 mg orally twice a day. • Group 3: ad lib oral diet and a protein hydrolysate supplement (Ensure-HN or Sustacal). These supplements contain approximately 40-45 g/l protein, 140-150 g/l carbohydrate and 30-37 g/l fat. Daily protein intake consumed equalled 1.3-1.5 g/kg or 75% above the RDA value for healthy normals of 0.8 g/kg. This group was managed in the ten months prior to the onset of this study.
All patients were located in the burn/trauma step-down unit and then transferred to an acute rehabilitation hospital usually within the first week of onset of the recovery period. A burn nurse coordinator followed all patients at the rehabilitation hospitals. All patients were monitored until discharge but only the first three week period was used for the study period.
The following factors were checked: • a. Fatigue was measured objectively through increases in pulse of over 75% of predicted maximum (based on age) and a respiratory rate exceeding 30 breaths per minute beyond one minute after completion of the activity. • b. Muscle function was quantitated using a physical therapy index. The physical therapy program was determined for each patient by the burn therapist team based on optimum projected goals to be achieved at the three week period. Standard isokinetic and resistance exercises were used to increase strength. Ambulation, stair climbing and the stationary bike were used to increase endurance. Since the basic components of therapy programs were nearly identical between patients, an index was developed which quantitated progress of patient performance:
• c. Body weight; • d. Daily nutritional profiles; • e. Liver function
Within each group, paired data was analyzed using Dunnett's T-test comparing individual time periods. Between groups, analysis was compared by use of a nonparametric method, the Wilcoxan Signed Rank Test. Standard regression analysis was also performed. A p<0.05 was considered significant.

The conditions of series [6]: doses below 80 mg; cited from earlier work.
Series [7] deals with patients with alcoholic hepatitis. The following applies: dosages of up to 80 mg/day; cited from earlier work.
The mark [8] stands for this setting: Group III: oxandrolone 20 mg orally four times daily plus Met-Rx, 3 weeks.
[9] abbreviates: Group 2: oxandrolone 10 mg orally twice a day plus Met-Rx.

For `C[C@]12COC(=O)C[C@@H]1CC[C@@H]1[C@@H]2CC[C@@]2(C)[C@H]1CC[C@]2(C)O` [oxandrolone, 17α-methyl-17β-hydroxy-2-oxa-5α-androstan-3-one], in series [1], the “anabolic activity relative to its androgenic activity” value is on record as “approximately 6 times” and the “anabolic activity relative to that of methyltestosterone” value is 6.3 times. Moreover, the “healing of pressure sores unhealed for over one year” value in series [2] is on record as “the sores began to heal”. Moreover, in series [3] (setting [8]), the “energy level (0-10)” value is listed as “markedly improved” and the “therapy (physical therapy index 0-10)” value is listed as “markedly improved”. Further, in series [3] (Group III: oxandrolone 20 mg orally four times daily plus Met-Rx, 4 patients, 3 weeks), the “weight gain relative to Group I (standard nutrition)” value was “four times that of Group I”. The food intake result in series [3] (Group III: oxandrolone plus Met-Rx, compared with Group II) is “apparent added stimulus to food intake”. Further, the “lean body weight gain as share of weight gain, by bioelective impedance” value in series [3] (combination of Met-Rx and oxandrolone) amounted to 80%. Besides, in series [4], the hepatic metabolism entry is reported as “relatively little hepatic metabolism”. Moreover, the “maintenance of weight after discontinuation” value in series [5] (3 of 6 patients followed for eight weeks after discontinuation of three weeks of oxandrolone) was “the weight remained”. Also, in series [5] (setting [9]), the “average time of discharge from the rehabilitation or recovery phase to home” value was 22 ± 4 days, the “weight gain over the three week period relative to Group 1 (Met-Rx alone)” value is “double that of Group 1” and the “weight gain relative to retrospective Group 3 (standard supplements)” value is “nearly four times that of retrospective Group 3; also recorded: significantly increased”. The “physical therapy index (muscle strength and endurance, 0-10)” value in series [5] (Group 2: oxandrolone 10 mg orally twice a day plus Met-Rx, three weeks) is recorded as “performance exceeded expectations; also recorded: significantly higher than either of the other groups; also recorded: significantly increased”. For the same compound, the “liver function tests / chemical abnormality” value in series [5] (Group 2: oxandrolone 10 mg orally twice a day plus Met-Rx, one patient) is listed as “transient small increase in alkaline phosphatase”. The hirsutism entry in series [5] (the three women in the oxandrolone group) is recorded as “No hirsutism”. Further, the water retention result in series [6] is recorded as “not reported to occur”. Besides, the safety result in series [7] was “safe”.
